Results as given in patent EP4778931A1, “ULK1 INHIBITOR, PREPARATION METHOD THEREFOR AND USE THEREOF” (Dovetree Medicines Unus, Inc., priority 2023, dated 2025).
pIC50: −log10 of the molar value.

Target: T1, ULK1 (Homo sapiens, UniProt O75385)
T1 construct: purchased Promega V3521
T1 sequence (O75385 1-1050): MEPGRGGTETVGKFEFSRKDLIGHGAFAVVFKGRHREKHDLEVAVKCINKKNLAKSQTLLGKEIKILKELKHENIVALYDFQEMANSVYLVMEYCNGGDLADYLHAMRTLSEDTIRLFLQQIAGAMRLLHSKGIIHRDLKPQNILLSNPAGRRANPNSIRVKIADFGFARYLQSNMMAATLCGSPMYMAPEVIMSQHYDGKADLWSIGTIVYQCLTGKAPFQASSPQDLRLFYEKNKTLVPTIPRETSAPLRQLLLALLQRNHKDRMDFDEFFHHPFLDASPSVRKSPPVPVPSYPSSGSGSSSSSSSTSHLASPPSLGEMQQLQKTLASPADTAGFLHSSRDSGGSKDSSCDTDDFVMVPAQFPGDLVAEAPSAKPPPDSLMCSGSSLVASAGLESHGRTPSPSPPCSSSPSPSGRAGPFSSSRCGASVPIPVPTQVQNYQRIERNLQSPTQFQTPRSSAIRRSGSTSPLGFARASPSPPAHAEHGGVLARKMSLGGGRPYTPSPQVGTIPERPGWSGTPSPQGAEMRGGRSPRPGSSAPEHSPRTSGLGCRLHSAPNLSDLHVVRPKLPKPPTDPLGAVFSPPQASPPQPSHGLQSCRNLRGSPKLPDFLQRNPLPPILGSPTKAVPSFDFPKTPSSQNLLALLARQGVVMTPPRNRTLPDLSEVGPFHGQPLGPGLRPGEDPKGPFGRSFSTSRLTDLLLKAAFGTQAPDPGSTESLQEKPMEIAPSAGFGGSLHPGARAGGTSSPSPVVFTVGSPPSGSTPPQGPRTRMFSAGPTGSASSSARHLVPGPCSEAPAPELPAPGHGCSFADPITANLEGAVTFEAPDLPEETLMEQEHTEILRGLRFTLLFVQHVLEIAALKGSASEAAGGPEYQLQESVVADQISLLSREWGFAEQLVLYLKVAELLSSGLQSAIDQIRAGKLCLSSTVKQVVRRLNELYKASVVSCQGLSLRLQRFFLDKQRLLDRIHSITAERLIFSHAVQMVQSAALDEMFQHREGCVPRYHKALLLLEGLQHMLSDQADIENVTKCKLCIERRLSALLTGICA
Test: Inhibition of ULK1 protein activity (phosphorylation function), ADP-Glo method
Format: biochemical
Details: ADP-Glo; ULK1 (Promega), ATP and MBP substrate, 60 min at room temperature; 10 concentrations, maximum 10 µM; read-out: ULK1 IC50
Protocol: In this experiment, the inhibitory effect of a compound on the phosphorylation function of ULK1 was detected by ADP-Glo method. The inhibitory effect of the compound of the present disclosure on the ULK1 target was evaluated based on IC50.
Compound formulation: Using an ECHO (Beckman, ECHO650), the compound was serially diluted 3-fold in DMSO in a 384-well plate (PE, 6007290). A total of 10 concentration points were set, with the maximum concentration of the compound being 10 µM, and 50 nL per well. Positive control wells and negative control wells were added with 50 nL DMSO, respectively.
Reaction process: A 32 nM of ULK1 (Promega, V3521) solution was formulated, and 2.5 µL/well was transferred to the compound test wells and the negative control wells (NC). 2.5 µL/well of 1× Assay buffer was added to the positive control wells (PC). A mixed solution of 100 µM of ATP and 1.86 µM of MBP was formulated, and 2.5 µL/well was transferred to the reaction plate. After centrifugation, the reaction was initiated and incubated at room temperature for 60 min. After the reaction was completed, 5 µL/well of ADP-Glo Reagent (Promega, V9102) was added to the reaction plate. After centrifugation, the reaction was incubated at room temperature for 40 minutes. Finally, 10 µL/well of Kinase Detection Buffer was added, followed by centrifugation and incubation at room temperature for 30 min. The chemiluminescence value was read using Envision (PE, Envision2105).
Assay buffer: a reaction buffer; and Kinase Detection buffer: a detection buffer, both were taken from the ADP-Glodetection kit, purchased from Promega, model V9102.
The inhibition ratio of a compound on ULK1 activity was calculated using the following formula: [formula]
The dose-effect curve was fitted using the log(inhibitor) vs. response -Variable slope of the analysis software GraphPad Prism 8, thereby affording the IC50 value of each compound for enzyme activity.

Compound | pIC50
CN1CCN2c3ccc(Nc4ncc(C(F)(F)F)c(OCCCn5nccc5Cl)n4)cc3COCC2C1 (centres unmarked) [Compound 10] | > 7.00
CN1CCN2c3ccc(Nc4ncc(C(F)(F)F)c(OCCCN5CCCCC5=O)n4)cc3N(C)C(=O)C2C1 (centres unmarked) [Compound 14] | > 7.00
CC(=O)N1CCN2c3ccc(Nc4ncc(C(F)(F)F)c(N5CCC6(CCN(C)C6)C5)n4)cc3COCC2C1 (centres unmarked) [Compound 18] | > 7.00
CN1CCN2c3ccc(Nc4ncc(C(F)(F)F)c(O[C@H]5CC[C@@H](n6cccn6)CC5)n4)cc3COCC2C1 (some centres unmarked) [Compound 7] | > 7.00
CN1CCC2(CC1)CCN(c1nc(Nc3ccc4c(c3)COCC3CN(C)CCN43)ncc1C(F)(F)F)CC2 (centres unmarked) [Compound 13] | 6.00 to 7.00
CN1CCN2c3ccc(Nc4ncc(C(F)(F)F)c(OCCCN5CCCCC5=O)n4)cc3OCCC2C1 (centres unmarked) [Compound 15] | > 7.00
CN1CCN2c3ccc(Nc4ncc(C(F)(F)F)c(OCCCN5CCCOC5=O)n4)cc3COCC2C1 (centres unmarked) [Compound 16] | > 7.00
CN1CCC2(CCN(c3nc(Nc4ccc5c(c4)COCC4CN(C6COC6)CCN54)ncc3C(F)(F)F)C2)C1 (centres unmarked) [Compound 19] | > 7.00
